Laboratory results published in patent publication US9073892B2, “Indazolyl triazol derivatives” (Merck Serono S.A., priority 2010, dated 2015).
Where a name gives a salt, the structure may show the parent alone. Values belong to the compound of their own block, whether it stands above or below them.

How the values were obtained:
[1] = system: LPS-induced IL-6 release; experiment: LPS-induced cytokine release in mice (IL-6); type: in vivo; conditions: female C57B6 mice; for inhibition of LPS-induced IL-6 release in mice: 30 min before LPS 1 mg/kg i.p., serum 2 hours after LPS
Protocol: (§1) LPS-Induced Cytokine Release in Mice
(§2) Female C57B6 mice (8-10 weeks 4-6 mice/group) were dosed p.o. with vehicle (40% Kleptose in water), reference compound dexamethasone (1 mg/kg) or three different doses of compound 1 (10, 30 and 60 mg/kg at 10 mL/kg). 30 minutes after compound administrations mice were injected i.p. with LPS (0111:B4, 1 mg/kg). 2 hours after LPS injection mice were sacrificed. Serum was collected; cytokine levels (TNF-α and IL-6) were detected by ELISA or OBA.

[2] = system: T1, IRAK1/4 human; experiment: IRAK1/4 phosphorylation IC50 (enzymatic assay, table 2); type: biochemical; conditions: human IRAK1/4 phosphorylation
T1 construct: fused on or other part: His tag and TEV cleavage site at the N-terminus
Method in brief: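 Inhibition values are IC50s. They come from 384-well reactions in which His-TEV-tagged human IRAK-1 or IRAK-4 (the latter with STK1-biotin peptide) met ATP and compounds in DMSO at 20 µM to 1 nM. The buffer was 50 mM Hepes pH7.0 containing MgCl2, DTT, EGTA and BSA, and incubation lasted 2 or 3 hours.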

[3] = system: IL-6 secretion in human PBMC; experiment: IRAK IL-6 secretion functional assay in human PBMC; type: cell-based; conditions: preincubated 1 h with test article, stimulated with 10 ng/ml IL1, 18-20 h, ELISA
Protocol: IRAK IL-6 Secretion Functional Assay in Human PBMC
Human PBMCs from healthy volunteers were purified from buffy coats of heparinized whole blood by density centrifugation on Ficoll-Hypaque. Isolated PBMCs were washed twice in PBS, counted, and seeded at a density of 7×10^4 cells/well in 180 µl of complete RPMI 1640 medium containing 10% heat-inactivated FBS. PBMC were preincubated for 1 h with serial dilutions of test article dissolved in DMSO (final DMSO concentration 0.33%) at 37° C. in a 5% CO2 incubator. PBMC were then stimulated with 10 ng/ml of IL1-(final volume […]) and incubation was continued for 18-20 h. The supernatants were collected and IL-6 was quantified using the Duo-set ELISA kit (R&D Systems) following manufacturer's instructions

[4] = system: IL1β-induced IL8 release in THP1 cells; experiment: IRAK IL8 secretion functional assay; type: cell-based; conditions: Homo sapiens; THP-1 cells, IL1β 100 ng/ml overnight, IL8 by HTRF; read-out: IC50, Secretion THP-1/IL-β induced IL8 release
Method in brief: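 THP-1 cells (30,000/well, RPMI 1640) were incubated overnight at 37 °C, 5% CO2 with compound (20 μM to 1 nM) plus IL1β at 100 ng/ml final. IL-8 in the supernatant was measured by HTRF with europium cryptate- and XL665-labelled anti-IL8 antibodies, read after 3 h at 30 °C.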

[5] = system: LPS-induced TNFα release; experiment: LPS-induced cytokine release in mice (TNFα); type: in vivo; conditions: female C57B6 mice; for inhibition of LPS-induced TNFα release in mice: 30 min before LPS 1 mg/kg i.p., serum 2 hours after LPS
Protocol: as §1, §2

- melting point: 303 °C
SMILES: Cc1ccc2c(-c3cn(-c4ccc(C5CCNCC5)cc4)nn3)n[nH]c2c1 (as salt: HCl) [Example 265]

- IC50 [2]: 100 to 1000 nM
- IC50 [4]: 100 to 1000 nM
SMILES: O=C(c1ccc(-n2cc(-c3n[nH]c4ccccc34)nn2)cc1)N1CCOCC1 [Example 1, 3-{1-[4-(morpholin-4-ylcarbonyl)phenyl]-1H-1,2,3-triazol-4-yl}-1H-indazole]
- LPS-induced IL-6 release in mice (result in words) ([1]; 10, 30 and 60 mg/kg p.o.): inhibits dose dependently
- inhibition of LPS-induced IL-6 release in mice ([1]; 10 mpk po): 9% INH
- inhibition of LPS-induced IL-6 release in mice ([1]; 30 mpk po): 25% INH
- inhibition of LPS-induced IL-6 release in mice ([1]; 60 mpk po): 66% INH
- IC50 [3]: 200 to 2000 nM
- LPS-induced TNFα release in mice (result in words) ([5]; 10, 30 and 60 mg/kg p.o.): inhibits dose dependently
- inhibition of LPS-induced TNFα release in mice ([5]; 10 mpk po): 36% INH
- inhibition of LPS-induced TNFα release in mice ([5]; 30 mpk po): 43% INH
- inhibition of LPS-induced TNFα release in mice ([5]; 60 mpk po): 61% INH

SMILES: C[C@@H]1C[C@H]2[C@@H]3CCC4=CC(=O)C=C[C@]4(C)[C@@]3(F)[C@@H](O)C[C@]2(C)[C@@]1(O)C(=O)CO [dexamethasone, reference compound]
- inhibition of LPS-induced IL-6 release in mice ([1]; 1 mpk po): 83% INH
- inhibition of LPS-induced TNFα release in mice ([5]; 1 mpk po): 97% INH
